Experimental data reported in patent US7754868B2, “Nucleic acid encoding two-component sensing and regulatory proteins, antimicrobial proteins and uses therefor” (North Carolina State University, priority 2004, dated 2010).
Entries after “also recorded” stand apart in the source; their conditions may differ.

Columns and labels:
[1] = system: L. acidophilus HPK mutant (NCK1686); details: log-phase cells
Description: (§1) Log phase cells at an A600 of 0.25-0.3 (pH>5.8) from a 2% inoculum in MRS broth were centrifuged and resuspended in the same volume of NMS, or MRS containing 15 or 20% (v/v) ethanol. CFU/ml were determined at 30 minutes intervals by serial dilutions in 10% MRS and enumeration on MRS agar as described above.

[2] = system: L. acidophilus control NCK1398 (NCFM::lacL); details: 20% ethanol, after 90 min, log-phase cells
Description: as §1

[3] = system: L. acidophilus NCFM LBA1430 HPK mutant; experiment: Growth curves with 0.3% of individual bile salts; type: cell-based, Lactobacillus acidophilus; details: 0.3% bile salt
Description: Growth curve experiments were also performed using 0.3% of individual bile salts: taurocholic acid, taurodeoxycholic acid, taurochenodeoxycholic acid, glycocholic acid, glycodeoxycholic acid.

| SMILES | survival, HPK mutant versus control ([1]; 15% (v/v) ethanol) | reduction in survival ([1]; 20% ethanol, after 90 min) | reduction in survival [2] | effect on growth of the HPK mutant compared to wild type [3] |
| --- | --- | --- | --- | --- |
| CCO [ethanol] | No differences were observed | 4 log | 1 log | – |
| C[C@H](CCC(=O)NCCS(=O)(=O)O)[C@H]1CC[C@H]2[C@@H]3CC[C@@H]4C[C@H](O)CC[C@]4(C)[C@H]3C[C@H](O)[C@]12C [Sodium taurodeoxycholate] | – | – | – | the only salt that affected the growth of the HPK mutant; also recorded: more inhibitory effect on the growth of the HPK mutant than other salts tested |
